Results published in ChEMBL document CHEMBL1131487, “Acetamidine lysine derivative, N-(5(S)-amino-6,7-dihydroxyheptyl)ethanimidamide dihydrochloride: a highly selective inhibitor of human inducible nitric oxide synthase” (J Med Chem, 1998).

Columns and labels:
[1] = target: Nitric oxide synthase (inducible and endothelial) (Homo sapiens) (UniProt P35228+P29474); assay: Selectivity index determined by the ratio of IC50 of eNOS to the iNOS; type: protein assay
Nitric oxide synthase 3 = target: T1, Nitric oxide synthase 3 (Homo sapiens, UniProt P29474); assay: Compound was evaluated for the Inhibition of endothelial isoform of Endothelial nitric oxide synthase (eNOS)enzyme
T1 sequence (P29474 whole entry): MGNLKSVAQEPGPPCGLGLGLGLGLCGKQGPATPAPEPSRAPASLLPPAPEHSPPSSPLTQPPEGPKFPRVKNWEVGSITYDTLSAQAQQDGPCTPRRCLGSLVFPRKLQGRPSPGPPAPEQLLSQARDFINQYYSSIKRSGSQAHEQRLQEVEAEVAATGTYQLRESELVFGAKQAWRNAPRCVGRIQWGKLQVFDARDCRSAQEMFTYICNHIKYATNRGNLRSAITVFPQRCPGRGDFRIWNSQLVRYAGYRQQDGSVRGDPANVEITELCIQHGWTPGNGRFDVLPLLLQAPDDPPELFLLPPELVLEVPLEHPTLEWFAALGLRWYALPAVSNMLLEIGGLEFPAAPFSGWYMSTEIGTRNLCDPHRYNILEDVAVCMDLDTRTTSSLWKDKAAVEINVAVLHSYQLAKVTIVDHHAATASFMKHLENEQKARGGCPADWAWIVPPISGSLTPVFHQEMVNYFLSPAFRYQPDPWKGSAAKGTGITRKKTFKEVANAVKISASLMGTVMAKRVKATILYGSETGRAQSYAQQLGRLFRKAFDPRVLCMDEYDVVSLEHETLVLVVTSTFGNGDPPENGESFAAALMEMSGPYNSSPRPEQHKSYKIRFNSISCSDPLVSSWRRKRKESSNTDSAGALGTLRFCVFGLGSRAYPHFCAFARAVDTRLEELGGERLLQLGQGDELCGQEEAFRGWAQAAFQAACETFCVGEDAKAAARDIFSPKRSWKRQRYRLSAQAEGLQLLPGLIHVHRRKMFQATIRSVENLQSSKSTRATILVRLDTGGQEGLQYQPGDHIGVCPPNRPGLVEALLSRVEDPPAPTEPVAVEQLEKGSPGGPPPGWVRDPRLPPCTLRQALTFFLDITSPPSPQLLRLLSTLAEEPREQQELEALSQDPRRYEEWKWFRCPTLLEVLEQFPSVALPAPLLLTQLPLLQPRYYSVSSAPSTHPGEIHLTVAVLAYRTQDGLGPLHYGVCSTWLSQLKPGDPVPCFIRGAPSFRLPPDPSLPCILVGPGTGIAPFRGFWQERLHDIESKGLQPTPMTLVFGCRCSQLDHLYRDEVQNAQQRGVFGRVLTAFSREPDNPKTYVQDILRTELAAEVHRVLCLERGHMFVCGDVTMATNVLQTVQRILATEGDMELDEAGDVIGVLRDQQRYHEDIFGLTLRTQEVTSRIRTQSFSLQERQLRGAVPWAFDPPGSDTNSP

[2] = target: T2, Nitric oxide synthase, inducible (Homo sapiens, UniProt P35228); assay: Compound was evaluated for the Inhibition of induced isoform of Inducible nitric oxide synthase
[3] = target: Nitric oxide sythases; iNOS & nNOS (Homo sapiens) (UniProt P29475+P35228); assay: Selectivity index determined by the ratio of IC50 of nNOS to the iNOS; type: protein assay
Nitric oxide synthase 1 [4] = target: T3, Nitric oxide synthase 1 (Homo sapiens, UniProt P29475); assay: Compound was evaluated for the Inhibition of Neuronal nitric oxide synthase
[5] = target: T4, Nitric oxide synthase 3 (Homo sapiens) (UniProt P29474); assay: Compound was evaluated for the Inhibition of endothelial isoform of Endothelial nitric oxide synthase (eNOS)enzyme at 100 uM concentration
T4 sequence (whole entry): T1 sequence (P29474 whole entry)

[6] = target: T2, Nitric oxide synthase, inducible; assay: Compound was evaluated for the Inhibition of induced isoform of Inducible nitric oxide synthase at 100 uM concentration
Nitric oxide synthase 1 [7] = target: T3, Nitric oxide synthase 1; assay: Compound was evaluated for the Inhibition of Neuronal nitric oxide synthase at 100 uM concentration

T2 sequence (P35228 whole entry, canonical isoform): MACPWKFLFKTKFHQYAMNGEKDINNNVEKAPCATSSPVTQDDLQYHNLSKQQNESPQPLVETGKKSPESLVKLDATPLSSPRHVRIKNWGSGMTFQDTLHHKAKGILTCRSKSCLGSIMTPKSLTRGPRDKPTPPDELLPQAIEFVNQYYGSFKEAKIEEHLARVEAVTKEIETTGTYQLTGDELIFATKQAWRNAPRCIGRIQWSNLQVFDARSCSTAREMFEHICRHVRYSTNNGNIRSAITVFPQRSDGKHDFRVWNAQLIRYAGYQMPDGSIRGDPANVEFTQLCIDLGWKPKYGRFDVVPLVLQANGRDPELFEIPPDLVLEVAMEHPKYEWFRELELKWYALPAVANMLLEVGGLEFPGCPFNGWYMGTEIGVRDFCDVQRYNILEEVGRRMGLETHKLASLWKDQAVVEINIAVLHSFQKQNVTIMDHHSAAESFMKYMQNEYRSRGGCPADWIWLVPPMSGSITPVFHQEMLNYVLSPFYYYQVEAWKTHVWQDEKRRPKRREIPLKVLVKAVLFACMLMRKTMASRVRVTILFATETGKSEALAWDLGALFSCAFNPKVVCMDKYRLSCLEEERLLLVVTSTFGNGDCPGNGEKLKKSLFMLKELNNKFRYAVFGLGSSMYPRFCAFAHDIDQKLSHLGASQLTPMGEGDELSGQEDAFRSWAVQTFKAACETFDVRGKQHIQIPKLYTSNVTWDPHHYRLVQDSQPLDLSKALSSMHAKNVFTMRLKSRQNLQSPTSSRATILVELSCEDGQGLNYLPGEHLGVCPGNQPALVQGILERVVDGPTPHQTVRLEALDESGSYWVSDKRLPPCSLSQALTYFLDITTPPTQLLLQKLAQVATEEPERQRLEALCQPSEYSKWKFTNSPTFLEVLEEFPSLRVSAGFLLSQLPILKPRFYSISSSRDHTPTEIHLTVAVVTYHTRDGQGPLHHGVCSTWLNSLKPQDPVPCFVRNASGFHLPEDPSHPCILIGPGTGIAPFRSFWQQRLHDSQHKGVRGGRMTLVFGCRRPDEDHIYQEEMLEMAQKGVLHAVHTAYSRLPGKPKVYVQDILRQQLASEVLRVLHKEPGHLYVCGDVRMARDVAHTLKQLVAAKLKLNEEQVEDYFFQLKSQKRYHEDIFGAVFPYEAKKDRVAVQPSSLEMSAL
Nitric oxide synthase (inducible and endothelial) (Homo sapiens), sequence (P35228 whole entry, looked up, one chain of several, canonical isoform): as the sequence (P35228 whole entry, canonical isoform) above
T3 sequence (P29475 whole entry, canonical isoform): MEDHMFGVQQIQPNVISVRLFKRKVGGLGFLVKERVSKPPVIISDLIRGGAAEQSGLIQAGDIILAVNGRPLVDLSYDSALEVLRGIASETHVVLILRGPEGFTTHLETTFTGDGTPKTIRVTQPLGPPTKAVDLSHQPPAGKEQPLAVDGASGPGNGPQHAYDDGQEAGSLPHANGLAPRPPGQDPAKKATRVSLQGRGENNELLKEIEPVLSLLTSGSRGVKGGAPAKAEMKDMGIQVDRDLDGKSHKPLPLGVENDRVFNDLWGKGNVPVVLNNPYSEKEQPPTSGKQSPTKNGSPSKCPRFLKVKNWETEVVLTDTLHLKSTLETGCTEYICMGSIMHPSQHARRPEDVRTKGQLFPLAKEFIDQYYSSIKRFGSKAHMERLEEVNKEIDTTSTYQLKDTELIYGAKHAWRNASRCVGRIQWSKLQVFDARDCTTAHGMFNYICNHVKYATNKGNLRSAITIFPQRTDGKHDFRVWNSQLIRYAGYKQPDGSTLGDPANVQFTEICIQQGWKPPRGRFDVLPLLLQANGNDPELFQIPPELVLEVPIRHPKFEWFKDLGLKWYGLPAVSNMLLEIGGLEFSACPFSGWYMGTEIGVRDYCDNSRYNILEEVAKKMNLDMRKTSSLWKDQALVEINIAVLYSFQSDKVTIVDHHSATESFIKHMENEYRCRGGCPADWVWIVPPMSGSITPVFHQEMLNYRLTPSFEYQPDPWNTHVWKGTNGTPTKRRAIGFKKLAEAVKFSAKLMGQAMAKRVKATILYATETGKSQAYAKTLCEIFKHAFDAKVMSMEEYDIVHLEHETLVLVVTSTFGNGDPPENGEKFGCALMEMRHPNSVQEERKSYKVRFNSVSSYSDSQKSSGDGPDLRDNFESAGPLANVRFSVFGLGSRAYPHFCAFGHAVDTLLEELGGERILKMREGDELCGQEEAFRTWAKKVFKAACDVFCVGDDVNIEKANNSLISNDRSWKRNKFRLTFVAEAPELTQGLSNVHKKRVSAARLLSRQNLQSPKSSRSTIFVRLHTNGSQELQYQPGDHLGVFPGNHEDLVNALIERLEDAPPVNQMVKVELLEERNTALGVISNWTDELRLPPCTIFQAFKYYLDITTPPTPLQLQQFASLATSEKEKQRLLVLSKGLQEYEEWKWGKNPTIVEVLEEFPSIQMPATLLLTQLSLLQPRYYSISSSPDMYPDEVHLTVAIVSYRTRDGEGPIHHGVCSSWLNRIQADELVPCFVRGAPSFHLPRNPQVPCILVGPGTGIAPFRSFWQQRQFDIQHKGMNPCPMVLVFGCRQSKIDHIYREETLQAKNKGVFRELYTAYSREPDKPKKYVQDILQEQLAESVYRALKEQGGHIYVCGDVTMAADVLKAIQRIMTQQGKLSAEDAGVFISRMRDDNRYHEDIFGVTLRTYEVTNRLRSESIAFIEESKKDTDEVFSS
Nitric oxide sythases; iNOS & nNOS (Homo sapiens), sequence (P29475 whole entry, looked up): as the sequence (P29475 whole entry, canonical isoform) above
Nitric oxide sythases; iNOS & nNOS (Homo sapiens), sequence (P35228 whole entry, looked up): as the sequence (P35228 whole entry, canonical isoform) above

Selectivity index [1] | IC50 (Nitric oxide synthase 3) [µM] | IC50 [2] [µM] | Selectivity index [3] | IC50 (Nitric oxide synthase 1 [4]) [µM] | inhibition [5] [%] | inhibition [6] [%] | inhibition (Nitric oxide synthase 1 [7]) [%] | SMILES
700 | 8420 | 12 | 12 | 150 | – | – | – | CC(=N)NCCCC[C@H](N)[C@@H](O)CO
30 | 138 | 5 | 12 | – | – | – | – | CC(=N)NCCCC[C@H](N)C(=O)O [L-NIL]
– | – | – | – | – | 0 | 49 | 13 | CC(=N)NCCCC[C@H](N)[C@H](O)CO
